Measurements published in ChEMBL document CHEMBL3352419, “Antiprotozoal activity of 8-acyl and 8-alkyl incomptine A analogs” (Bioorg Med Chem Lett, 2014).
In brackets after ≈: the same amount, converted by molar mass.

Tests used:
Giardia intestinalis = assay: Antiprotozoal activity against Giardia lamblia IMSS: 8909:1 trophozoites assessed as growth inhibition compound treated for 48 hrs measured 48 hrs post wash-out by MTT assay; format: functional, organism-based; conditions: Giardia duodenalis, IMSS: 8909:1, 48 h
Entamoeba histolytica = assay: Antiprotozoal activity against Entamoeba histolytica HM-1:IMSS trophozoites assessed as growth inhibition compound treated for 48 hrs measured 48 hrs post wash-out by MTT assay; format: functional, organism-based

| SMILES | IC50 (Giardia intestinalis) | IC50 (Entamoeba histolytica) |
| --- | --- | --- |
| C=C1C(=O)O[C@H]2/C=C(C)\C=C/[C@H]3O[C@]3(C)C[C@@H](OC(C)=O)[C@@H]12 | 18.1 µg/mL (≈ 59.5 µM) | 2.6 µg/mL (≈ 8.54 µM) |
| C=C1C(=O)O[C@H]2/C=C(C)\C=C/[C@H]3O[C@]3(C)C[C@@H](O)[C@@H]12 | 257 µg/mL (≈ 979 µM) | 138 µg/mL (≈ 525 µM) |
| C=C1C(=O)O[C@H]2/C=C(C)\C=C/[C@H]3O[C@]3(C)C[C@@H](OC(=O)C(F)(F)F)[C@@H]12 | 43.3 µg/mL (≈ 121 µM) | 37.7 µg/mL (≈ 105 µM) |
| C=C1C(=O)O[C@H]2/C=C(C)\C=C/[C@H]3O[C@]3(C)C[C@@H](OC(=O)CC)[C@@H]12 | 68.8 µg/mL (≈ 216 µM) | 51.6 µg/mL (≈ 162 µM) |
| C=C1C(=O)O[C@H]2/C=C(C)\C=C/[C@H]3O[C@]3(C)C[C@@H](OC(=O)CCC)[C@@H]12 | 51.7 µg/mL (≈ 156 µM) | 49.1 µg/mL (≈ 148 µM) |
| C=C1C(=O)O[C@H]2/C=C(C)\C=C/[C@H]3O[C@]3(C)C[C@@H](OC(=O)C(C)C)[C@@H]12 | 62.2 µg/mL (≈ 187 µM) | 52.7 µg/mL (≈ 159 µM) |
| C=C1C(=O)O[C@H]2/C=C(C)\C=C/[C@H]3O[C@]3(C)C[C@@H](OC(=O)CCCC)[C@@H]12 | 58.3 µg/mL (≈ 168 µM) | 51.7 µg/mL (≈ 149 µM) |
| C=C(C)C(=O)O[C@@H]1C[C@@]2(C)O[C@@H]2/C=C\C(C)=C/[C@@H]2OC(=O)C(=C)[C@@H]21 | 44.2 µg/mL (≈ 134 µM) | 32.7 µg/mL (≈ 99 µM) |
| C=C1C(=O)O[C@H]2/C=C(C)\C=C/[C@H]3O[C@]3(C)C[C@@H](OC)[C@@H]12 | 35.2 µg/mL (≈ 127 µM) | 29.4 µg/mL (≈ 106 µM) |
| C=C1C(=O)O[C@H]2/C=C(C)\C=C/[C@H]3O[C@]3(C)C[C@@H](OCC)[C@@H]12 | 43.8 µg/mL (≈ 151 µM) | 31.9 µg/mL (≈ 110 µM) |
| C=C1C(=O)O[C@H]2/C=C(C)\C=C/[C@H]3O[C@]3(C)C[C@@H](OCCC)[C@@H]12 | 31.2 µg/mL (≈ 103 µM) | 35.9 µg/mL (≈ 118 µM) |
| C=C1C(=O)O[C@H]2/C=C(C)\C=C/[C@H]3O[C@]3(C)C[C@@H](OC(C)C)[C@@H]12 | 32.7 µg/mL (≈ 107 µM) | 28.7 µg/mL (≈ 94.3 µM) |
| C=C1C(=O)O[C@H]2/C=C(C)\C=C/[C@H]3O[C@]3(C)CC(=O)[C@@H]12 | 30.6 µg/mL (≈ 118 µM) | 34.9 µg/mL (≈ 134 µM) |
